Experimental data from US8735398B2 (Bristol-Myers Squibb Company, priority 2009, dated 2014).
pEC50: −log10 of the molar value.

tested on: HCV 1b genotype; experiment: HCV replicon assay (HCV-neo replicon cells, wild-type); assay type: cell-based, Hepatitis C virus; conditions: HCV 1b genotype replicon; class symbols; read-out: EC50 Range against HCV 1b
Procedure, shortened: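 HCV-neo replicon cells (wild-type) and replicon cells carrying NS5A resistance substitutions were treated with compounds; assay per O'Boyle et al. 2005, with luciferase-reporter read-out variants also used.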

| Structure (SMILES) | pEC50 |
| --- | --- |
| O=C(Nc1ccc(-c2cnc(-c3ccc(NC(=O)[C@@H]4CCCN4C(=O)CN4CCCCC4)cc3)o2)cc1)[C@@H]1CCCN1C(=O)CN1CCCCC1 [XY-41, (2S,2′S)-N,N′-(1,3-oxazole-2,5-diyldi-4,1-phenylene)bis(1-(1-piperidinylacetyl)-2-pyrrolidinecarboxamide)] | 5.00 to 6.00 |

same assay, conditions: Hepatitis C virus, HCV 1b genotype replicon; class symbols; read-out: EC50 Range against HCV 1b

| Structure (SMILES) | pEC50 |
| --- | --- |
| COc1ccccc1CC(=O)N1CCC[C@H]1C(=O)Nc1ccc(-c2cnc(-c3ccc(NC(=O)[C@@H]4CCCN4C(=O)Cc4ccccc4OC)cc3)o2)cc1 [XY-35, (2S,2′S)-N,N′-(1,3-oxazole-2,5-diyldi-4,1-phenylene)bis(1-((2-methoxyphenyl)acetyl)-2-pyrrolidinecarboxamide)] | 6.00 to 7.00 |
| O=C(Nc1ccc(-c2cnc(-c3ccc(NC(=O)[C@@H]4CCCN4C(=O)c4ccc5c(c4)OCO5)cc3)o2)cc1)[C@@H]1CCCN1C(=O)c1ccc2c(c1)OCO2 [XY-36, (2S,2′S)-N,N′-(1,3-oxazole-2,5-diyldi-4,1-phenylene)bis(1-(1,3-benzodioxol-5-ylcarbonyl)-2-pyrrolidinecarboxamide)] | 6.00 to 7.00 |
| O=C(Nc1ccc(-c2cnc(-c3ccc(NC(=O)[C@@H]4CCCN4C(=O)c4ccco4)cc3)o2)cc1)[C@@H]1CCCN1C(=O)c1ccco1 [XY-37, (2S,2′S)-N,N′-(1,3-oxazole-2,5-diyldi-4,1-phenylene)bis(1-(2-furoyl)-2-pyrrolidinecarboxamide)] | 6.00 to 7.00 |
| O=C(Nc1ccc(-c2cnc(-c3ccc(NC(=O)[C@@H]4CCCN4C(=O)c4ccoc4)cc3)o2)cc1)[C@@H]1CCCN1C(=O)c1ccoc1 [XY-38, (2S,2′S)-N,N′-(1,3-oxazole-2,5-diyldi-4,1-phenylene)bis(1-(3-furoyl)-2-pyrrolidinecarboxamide)] | 7.00 to 8.34 |
| CC1(C(=O)N2CCC[C@H]2C(=O)Nc2ccc(-c3cnc(-c4ccc(NC(=O)[C@@H]5CCCN5C(=O)C5(C)CC5)cc4)o3)cc2)CC1 [XY-39, (2S,2′S)-N,N′-(1,3-oxazole-2,5-diyldi-4,1-phenylene)bis(1-((1-methylcyclopropyl)carbonyl)-2-pyrrolidinecarboxamide)] | 6.00 to 7.00 |
| Cn1cccc1CC(=O)N1CCC[C@H]1C(=O)Nc1ccc(-c2cnc(-c3ccc(NC(=O)[C@@H]4CCCN4C(=O)Cc4cccn4C)cc3)o2)cc1 [XY-40, (2S,2′S)-N,N′-(1,3-oxazole-2,5-diyldi-4,1-phenylene)bis(1-((1-methyl-1H-pyrrol-2-yl)acetyl)-2-pyrrolidinecarboxamide)] | 6.00 to 7.00 |
| Cn1cnc(CC(=O)N2CCC[C@H]2C(=O)Nc2ccc(-c3cnc(-c4ccc(NC(=O)[C@@H]5CCCN5C(=O)Cc5cn(C)cn5)cc4)o3)cc2)c1 [XY-42, (2S,2′S)-N,N′-(1,3-oxazole-2,5-diyldi-4,1-phenylene)bis(1-((1-methyl-1H-imidazol-4-yl)acetyl)-2-pyrrolidinecarboxamide)] | 5.00 to 6.00 |
| Cc1ccc(C)c(C(=O)N2CCC[C@H]2C(=O)Nc2ccc(-c3cnc(-c4ccc(NC(=O)[C@@H]5CCCN5C(=O)c5cc(C)ccc5C)cc4)o3)cc2)c1 [XY-43, (2S,2′S)-N,N′-(1,3-oxazole-2,5-diyldi-4,1-phenylene)bis(1-(2,5-dimethylbenzoyl)-2-pyrrolidinecarboxamide)] | 5.00 to 6.00 |
| O=C(Nc1ccc(-c2cnc(-c3ccc(NC(=O)[C@@H]4C[C@@H](O)CN4C(=O)CC4CC4)cc3)o2)cc1)[C@@H]1C[C@@H](O)CN1C(=O)CC1CC1 [XY-44, (2S,4R,2′S,4′R)-N,N′-(1,3-oxazole-2,5-diyldi-4,1-phenylene)bis(1-(cyclopropylacetyl)-4-hydroxy-2-pyrrolidinecarboxamide)] | 5.00 to 6.00 |
| O=C(Nc1ccc(-c2cnc(-c3ccc(NC(=O)[C@@H]4C[C@@H](O)CN4C(=O)Cc4cccnc4)cc3)o2)cc1)[C@@H]1C[C@@H](O)CN1C(=O)Cc1cccnc1 [XY-45, (2S,4R,2′S,4′R)-N,N′-(1,3-oxazole-2,5-diyldi-4,1-phenylene)bis(4-hydroxy-1-(3-pyridinylacetyl)-2-pyrrolidinecarboxamide)] | 5.00 to 6.00 |
| O=C(Nc1ccc(-c2cnc(-c3ccc(NC(=O)[C@@H]4C[C@@H](O)CN4C(=O)C4CCC4)cc3)o2)cc1)[C@@H]1C[C@@H](O)CN1C(=O)C1CCC1 [XY-46, (2S,4R,2′S,4′R)-N,N′-(1,3-oxazole-2,5-diyldi-4,1-phenylene)bis(1-(cyclobutylcarbonyl)-4-hydroxy-2-pyrrolidinecarboxamide)] | 6.00 to 7.00 |
| CCc1ccccc1C(=O)N1C[C@H](O)C[C@H]1C(=O)Nc1ccc(-c2cnc(-c3ccc(NC(=O)[C@@H]4C[C@@H](O)CN4C(=O)c4ccccc4CC)cc3)o2)cc1 [XY-47, (2S,4R,2′S,4′R)-N,N′-(1,3-oxazole-2,5-diyldi-4,1-phenylene)bis(1-(2-ethylbenzoyl)-4-hydroxy-2-pyrrolidinecarboxamide)] | 6.00 to 7.00 |
| O=C(Nc1ccc(-c2cnc(-c3ccc(NC(=O)[C@@H]4C[C@@H](O)CN4C(=O)C4CCCCC4)cc3)o2)cc1)[C@@H]1C[C@@H](O)CN1C(=O)C1CCCCC1 [XY-48, (2S,4R,2′S,4′R)-N,N′-(1,3-oxazole-2,5-diyldi-4,1-phenylene)bis(1-(cyclohexylcarbonyl)-4-hydroxy-2-pyrrolidinecarboxamide)] | 5.00 to 6.00 |
| COC(C(=O)N1C[C@H](O)C[C@H]1C(=O)Nc1ccc(-c2cnc(-c3ccc(NC(=O)[C@@H]4C[C@@H](O)CN4C(=O)C(OC)c4ccccc4)cc3)o2)cc1)c1ccccc1 (stereo partly drawn) [XY-49, (2S,4R,2′S,4′R)-N,N′-(1,3-oxazole-2,5-diyldi-4,1-phenylene)bis(4-hydroxy-1-(methoxy(phenyl)acetyl)-2-pyrrolidinecarboxamide)] | 7.00 to 8.34 |
| O=C(Nc1ccc(-c2cnc(-c3ccc(NC(=O)[C@@H]4C[C@@H](O)CN4C(=O)[C@H]4CCCO4)cc3)o2)cc1)[C@@H]1C[C@@H](O)CN1C(=O)[C@H]1CCCO1 [XY-50, (2S,4R,2′S,4′R)-N,N′-(1,3-oxazole-2,5-diyldi-4,1-phenylene)bis(4-hydroxy-1-((2R)-tetrahydro-2-furanylcarbonyl)-2-pyrrolidinecarboxamide)] | 5.00 to 6.00 |
| Cc1cccc(CC(=O)N2C[C@H](O)C[C@H]2C(=O)Nc2ccc(-c3cnc(-c4ccc(NC(=O)[C@@H]5C[C@@H](O)CN5C(=O)Cc5cccc(C)c5)cc4)o3)cc2)c1 [XY-51, (2S,4R,2′S,4′R)-N,N′-(1,3-oxazole-2,5-diyldi-4,1-phenylene)bis(4-hydroxy-1-((3-methylphenyl)acetyl)-2-pyrrolidinecarboxamide)] | 6.00 to 7.00 |
| Cc1cc(CC(=O)N2C[C@H](O)C[C@H]2C(=O)Nc2ccc(-c3cnc(-c4ccc(NC(=O)[C@@H]5C[C@@H](O)CN5C(=O)Cc5cc(C)no5)cc4)o3)cc2)on1 [XY-52, (2S,4R,2′S,4′R)-N,N′-(1,3-oxazole-2,5-diyldi-4,1-phenylene)bis(4-hydroxy-1-((3-methyl-5-isoxazolyl)acetyl)-2-pyrrolidinecarboxamide)] | 5.00 to 6.00 |
| Cc1noc(C)c1C(=O)N1C[C@H](O)C[C@H]1C(=O)Nc1ccc(-c2cnc(-c3ccc(NC(=O)[C@@H]4C[C@@H](O)CN4C(=O)c4c(C)noc4C)cc3)o2)cc1 [XY-53, (2S,4R,2′S,4′R)-N,N′-(1,3-oxazole-2,5-diyldi-4,1-phenylene)bis(1-((3,5-dimethyl-4-isoxazolyl)carbonyl)-4-hydroxy-2-pyrrolidinecarboxamide)] | 5.00 to 6.00 |

same assay, conditions: Hepatitis C virus, HCV 1b genotype replicon; read-out: EC50 1b

| Structure (SMILES) | pEC50 |
| --- | --- |
| CCc1ccccc1C(=O)N1C[C@H](O)C[C@H]1C(=O)Nc1ccc(-c2cnc(-c3ccc(NC(=O)[C@@H]4C[C@@H](O)CN4C(=O)c4ccccc4CC)cc3)o2)cc1 [XY-47, (2S,4R,2′S,4′R)-N,N′-(1,3-oxazole-2,5-diyldi-4,1-phenylene)bis(1-(2-ethylbenzoyl)-4-hydroxy-2-pyrrolidinecarboxamide)] | 6.25 |
| Cc1noc(C)c1C(=O)N1C[C@H](O)C[C@H]1C(=O)Nc1ccc(-c2cnc(-c3ccc(NC(=O)[C@@H]4C[C@@H](O)CN4C(=O)c4c(C)noc4C)cc3)o2)cc1 [XY-53, (2S,4R,2′S,4′R)-N,N′-(1,3-oxazole-2,5-diyldi-4,1-phenylene)bis(1-((3,5-dimethyl-4-isoxazolyl)carbonyl)-4-hydroxy-2-pyrrolidinecarboxamide)] | 5.09 |
